pEC50, pIC50: −log10 of the molar value. ≈ marks a conversion by molar mass, not a printed value.
What was measured:
Human alphaherpesvirus 1 [1] = assay: Antiviral activity against HSV-1 15577 infected in African green monkey Vero cells incubated for 3 days by plaque reduction assay; format: functional, organism-based; conditions: Human alphaherpesvirus 1, 15577, Vero, 72 h
Human alphaherpesvirus 1 [2] = assay: Antiviral activity against HSV-1 clinical isolate infected in African green monkey Vero cells incubated for 3 days by plaque reduction assay; format: functional, organism-based; conditions: Human alphaherpesvirus 1, Vero, 72 h
Human alphaherpesvirus 2 [3] = assay: Antiviral activity against HSV-2 333 infected in African green monkey Vero cells incubated for 3 days by plaque reduction assay; format: functional, organism-based; conditions: Human alphaherpesvirus 2, 333, Vero, 72 h
[4] = Selectivity index, ratio of CC50 for cytotoxicity against African green monkey Vero cells to IC50 for antiviral activity against HSV-1 15577 infected in African green monkey Vero cells; format: toxicity, cell-based; conditions: read-out: Ratio CC50/IC50
[5] = Selectivity index, ratio of CC50 for cytotoxicity against African green monkey Vero cells to IC50 for antiviral activity against HSV-1 clinical isolate infected in African green monkey Vero cells; format: toxicity, cell-based; conditions: read-out: Ratio CC50/IC50
[6] = Selectivity index, ratio of CC50 for cytotoxicity against African green monkey Vero cells to IC50 for antiviral activity against HSV-2 333 infected in African green monkey Vero cells; format: toxicity, cell-based; conditions: read-out: Ratio CC50/IC50
[7] = test system: Human immunodeficiency virus 1; assay: Antiviral activity against HIV-1 NL 4-3 (X4) infected in human MT4 cells assessed as inhibition of virus induced cytopathic effect by MTT assay; format: functional, organism-based; conditions: Human immunodeficiency virus 1, NL 4-3 (X4)
[8] = Cytotoxicity against human MT4 cells by MTT assay; format: toxicity, cell-based
[9] = Selectivity index, ratio of CC50 for cytotoxicity against human MT4 cells to EC50 for antiviral activity against HIV-1 NL 4-3 (X4) infected in human MT4 cells; format: toxicity, cell-based; conditions: read-out: Ratio CC50/EC50
[10] = test system: Human immunodeficiency virus 1; assay: Antiviral activity against HIV-1 NL 4-3 (X4) infected in human TZM-bl cells assessed as inhibition of virus induced cytopathic effect by luciferase based assay; format: functional, organism-based; conditions: Human immunodeficiency virus 1, NL 4-3 (X4)
[11] = Cytotoxicity against human TZM-bl cells by luciferase assay; format: toxicity, cell-based
[12] = Selectivity index, ratio of CC50 for cytotoxicity against human TZM-bl cells to EC50 for antiviral activity against HIV-1 NL 4-3 (X4) infected in human TZM-bl cells; format: toxicity, cell-based; conditions: read-out: Ratio CC50/EC50
[13] = test system: Human immunodeficiency virus 1; assay: Antiviral activity against HIV-1 Bal (R5) infected in human TZM-bl cells assessed as inhibition of virus induced cytopathic effect by luciferase based assay; format: functional, organism-based; conditions: Human immunodeficiency virus 1, Bal (R5)
[14] = Selectivity index, ratio of CC50 for cytotoxicity against human TZM-bl cells to EC50 for antiviral activity against HIV-1 Bal (R5) infected in human TZM-bl cells; format: toxicity, cell-based; conditions: read-out: Ratio CC50/EC50
[15] = Inhibition of influenza B virus B/Jiangsu/10/2003 neuraminidase
Influenza A virus [16] = assay: Antiviral activity against influenza A virus A/Guangdong/243/72 ([…]) infected in MDCK cells assessed as inhibition of virus-induced cytopathic effect; format: functional, organism-based
[17] = Selectivity index, ratio of CC50 for cytotoxicity against MDCK cells to IC50 for influenza A virus A/Guangdong/243/72 ([…]) infected in MDCK cells; format: toxicity, cell-based; conditions: dog, read-out: Ratio CC50/IC50
Influenza A virus [18] = assay: Antiviral activity against influenza A virus A/PR/8/34 (H1N1) infected in MDCK cells preincubated 2 hrs followed by viral infection and measured after 24 hrs by MTT assay; format: functional, organism-based
[19] = target: Neuraminidase (Influenza A virus (A/Puerto Rico/8/1934(H1N1)), UniProt P03468); assay: Inhibition of influenza A virus A/PR/8/34 (H1N1) neuraminidase
Human alphaherpesvirus 1 [20] = assay: Antiviral activity against HSV-1 7401H infected in African green monkey Vero cells incubated for 2 days by plaque reduction assay; format: functional, organism-based; conditions: Human alphaherpesvirus 1, 7401H
Human alphaherpesvirus 1 [21] = assay: Antiviral activity against HSV-1 KOS infected in African green monkey Vero cells incubated for 2 days by plaque reduction assay; format: functional, organism-based; conditions: Human alphaherpesvirus 1, KOS, 48 h
Human alphaherpesvirus 2 [22] = assay: Antiviral activity against HSV-2 Baylor 186 infected in African green monkey Vero cells incubated for 2 days by plaque reduction assay; format: functional, organism-based; conditions: Human alphaherpesvirus 2, Baylor 186, Vero, 48 h
Hepatitis C virus [23] = assay: Antiviral activity against Hepatitis C virus infected in human Huh7.5 cells assessed as reduction in viral replication; format: functional, organism-based, Hepacivirus hominis
[24] = Cytotoxicity against human Huh7.5 cells infected with Hepatitis C virus assessed as reduction in cell viability; format: toxicity, cell-based, Huh-7.5
Hepatitis C virus [25] = assay: Antiviral activity against Hepatitis C virus genotype 2 Rluc-J6/JFH1 infected in human Huh7.5 cells assessed as reduction in viral replication treated for 72 hrs by qRT-PCR analysis; format: functional, organism-based, Hepacivirus hominis; conditions: genotype 2 Rluc-J6/JFH1, Huh7.5, 72 h
Hepatitis C virus [26] = assay: Antiviral activity against Hepatitis C virus genotype 1 Bart791 infected in human Huh7.5 cells assessed as reduction in viral replication treated for 72 hrs by qRT-PCR analysis; format: functional, organism-based, Hepacivirus hominis; conditions: genotype 1 Bart791, Huh7.5, 72 h
Hepatitis C virus [27] = assay: Antiviral activity against Hepatitis C virus genotype 2 J6/JFH1 infected in human Huh7.5 cells assessed as reduction in viral replication treated for 72 hrs by qRT-PCR analysis; format: functional, organism-based, Hepacivirus hominis; conditions: genotype 2 J6/JFH1, Huh7.5, 72 h
Coxsackievirus B3 = assay: Antiviral activity against CVB3 infected in African green monkey Vero cells assessed as reduction in cytopathic effect by SRB assay; format: functional, organism-based; conditions: Enterovirus B
Enterovirus A71 = assay: Antiviral activity against human EV71 infected in African green monkey Vero cells assessed as reduction in cytopathic effect by SRB assay; format: functional, organism-based; conditions: Enterovirus A
Influenza A virus [28] = assay: Antiviral activity against influenza A virus A/NWS/33 (H1N1) infected in MDCK cells; format: functional, organism-based
Human alphaherpesvirus 1 [29] = assay: Antiviral activity against HSV-1 KOS infected in MDCK cells assessed as inhibition of viral replication measured after 24 hrs by plaque reduction assay; format: functional, organism-based; conditions: Human alphaherpesvirus 1, KOS
Human alphaherpesvirus 2 [30] = assay: Antiviral activity against HSV-2 UW 268 infected in MDCK cells assessed as inhibition of viral replication measured after 24 hrs by plaque reduction assay; format: functional, organism-based; conditions: Human alphaherpesvirus 2, UW 268, MDCK

Neuraminidase (Influenza A virus (A/Puerto Rico/8/1934(H1N1)), UniProt P03468), sequence (P03468 whole entry): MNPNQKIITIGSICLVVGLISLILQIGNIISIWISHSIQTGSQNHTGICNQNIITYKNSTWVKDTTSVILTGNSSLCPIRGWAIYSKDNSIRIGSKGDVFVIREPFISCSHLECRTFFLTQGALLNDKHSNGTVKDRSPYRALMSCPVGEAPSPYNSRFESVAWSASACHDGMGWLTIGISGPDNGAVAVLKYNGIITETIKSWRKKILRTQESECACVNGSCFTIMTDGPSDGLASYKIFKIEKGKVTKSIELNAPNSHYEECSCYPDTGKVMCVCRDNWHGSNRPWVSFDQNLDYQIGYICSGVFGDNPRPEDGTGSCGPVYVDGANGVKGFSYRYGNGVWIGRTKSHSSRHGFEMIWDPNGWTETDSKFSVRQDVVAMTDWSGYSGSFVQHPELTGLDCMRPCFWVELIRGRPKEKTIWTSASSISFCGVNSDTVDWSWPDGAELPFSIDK

Q: For `CC1=C[C@H](c2c(O)cc(/C=C/c3ccc(O)cc3O)cc2O)[C@@H](C(=O)c2ccc(O)cc2O)[C@H](c2ccc(O)cc2O)C1`, which IC50 (Human alphaherpesvirus 1 [1]) is on record?
A: 2.2 µg/mL (≈ 3.78 µM)

Q: What about the IC50 (Human alphaherpesvirus 1 [2]) of the same compound?
A: 1.5 µg/mL (≈ 2.57 µM)

Q: And the IC50 (Human alphaherpesvirus 2 [3])?
A: 2.5 µg/mL (≈ 4.29 µM)

Q: And the selectivity ratio [4]?
A: 37

Q: And the selectivity ratio [5]?
A: 55

Q: What about the selectivity ratio [6] of the same compound?
A: 32

Q: With `Oc1cc(/C=C/c2cc(O)c(O)c(O)c2)cc(O)c1O` as the compound, how does the pEC50 [7] read?
A: 6.13

Q: And the CC50 [8]?
A: 11.9 µM

Q: And the selectivity ratio [9]?
A: 16

Q: What about the pEC50 [10] of the same compound?
A: 6.54

Q: And the CC50 [11]?
A: 20.1 µM

Q: And the selectivity ratio [12]?
A: 69

Q: What about the pEC50 [13] of the same compound?
A: 5.77

Q: What about the selectivity ratio [14] of the same compound?
A: 12

Q: Which results are given for `Oc1ccc(/C=C/c2cc(O)c3c(c2)O[C@H](c2ccc(O)cc2O)[C@H]3c2cc(O)cc(O)c2)cc1`?
A: IC50 [15]: 26.3 µg/mL (≈ 55.9 µM); IC50 (Influenza A virus [16]): 0.67 µg/mL (≈ 1.42 µM); selectivity ratio [17]: 57.4; IC50 (Influenza A virus [18]): 0.67 µg/mL (≈ 1.42 µM)

Q: With `COc1cc(/C=C/c2cc(O)cc(O)c2Cc2ccc(O)c(O)c2)ccc1O` as the compound, how does the pIC50 [19] read?
A: 4.88

Q: What about the IC50 (Influenza A virus [16]) of the same compound?
A: 6.17 µg/mL (≈ 16.2 µM)

Q: And the selectivity ratio [17]?
A: 32.4

Q: Which IC50 (Human alphaherpesvirus 1 [20]) does the source give for `Oc1cc(O)cc(/C=C/c2ccc(O)cc2O)c1` [OXYRESVERATROL] here?
A: 19.8 µg/mL (≈ 81.1 µM)

Q: What about the IC50 (Human alphaherpesvirus 1 [21]) of the same compound?
A: 24 µg/mL (≈ 98.3 µM)

Q: And the IC50 (Human alphaherpesvirus 2 [22])?
A: 18.7 µg/mL (≈ 76.6 µM)

Q: With `Oc1ccc(C2Oc3ccc(/C=C/c4cc(O)cc5c4C(c4cc(O)cc(O)c4)C(c4ccc(O)cc4)O5)cc3C2c2cc(O)cc3c2C(c2cc(O)cc(O)c2)C(c2ccc(O)cc2)O3)cc1` (centres undefined) as the compound, how does the pEC50 (Hepatitis C virus [23]) read?
A: 8.22

Q: And the CC50 [24]?
A: > 10 µM

Q: What about the pEC50 (Hepatitis C virus [25]) of the same compound?
A: 8.52

Q: And the pEC50 (Hepatitis C virus [26])?
A: 9.00

Q: What about the pEC50 (Hepatitis C virus [27]) of the same compound?
A: 8.52

Q: With `Oc1ccc(/C=C\c2cc(O)cc(O)c2)cc1` [CIS-RESVERATROL] as the compound, how does the pIC50 (Coxsackievirus B3) read?
A: 4.91

Q: What about the pIC50 (Enterovirus A71) of the same compound?
A: 4.42

Q: Which results are given for `Oc1ccc([C@@H]2c3c(O)cc(O)cc3[C@@H]3c4c(cc(O)cc4[C@H]2[C@@H]2c4cc(O)cc5c4[C@@H](c4cc(O)cc(O)c4[C@H]2c2ccc(O)cc2)[C@H](c2ccc(O)cc2)O5)O[C@H]3c2ccc(O)cc2)cc1`?
A: pIC50 (Influenza A virus [28]): 5.19; pIC50 (Human alphaherpesvirus 1 [29]): 5.55; pIC50 (Human alphaherpesvirus 2 [30]): 5.19
